Test results: PubChem BioAssay (NCI)
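Tested at 5 concentrations; 48 h exposure; 96-well plates; endpoints linearly interpolated, else capped at highest concentration. GI50: concentration for 50% inhibition of growth. TGI denotes the concentration required for complete inhibition of growth.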

How the values were obtained:
Experiment in all cases: growth of human tumour cells (NCI), 48 h
CAKI-1 renal = tested on: CAKI-1 renal
SW-620 colon = tested on: SW-620 colon
MOLT-4 leukemia = tested on: MOLT-4 leukemia
HCT-15 colon = tested on: HCT-15 colon
786-0 renal = tested on: 786-0 renal
IGROV1 ovarian = tested on: IGROV1 ovarian
KM12 colon = tested on: KM12 colon
SN12C renal = tested on: SN12C renal
OVCAR-8 ovarian = tested on: OVCAR-8 ovarian

SMILES	TGI (CAKI-1 renal)	TGI (SW-620 colon)	TGI (MOLT-4 leukemia)	TGI (HCT-15 colon)	TGI (786-0 renal)	TGI (IGROV1 ovarian)	TGI (KM12 colon)	TGI (SN12C renal)	TGI (OVCAR-8 ovarian)	GI50 (CAKI-1 renal)	GI50 (SW-620 colon)	GI50 (MOLT-4 leukemia)	GI50 (HCT-15 colon)	GI50 (786-0 renal)	GI50 (IGROV1 ovarian)	GI50 (KM12 colon)	GI50 (SN12C renal)	GI50 (OVCAR-8 ovarian)
CCOC(=O)NC(=O)c1cn(C2CCCCC2)c(=O)[nH]c1=O	> 100 µM	> 100 µM	> 100 µM	> 100 µM	> 100 µM	> 100 µM	> 100 µM	> 100 µM	> 100 µM	–	–	–	–	–	–	–	–	–
CC(C)CCC[C@@H](C)C1CCC2[C@@H]3CC=C4C[C@@H](C(=O)NCCN(C)C)CC[C@]4(C)C3CC[C@@]21C (stereo not given in full)	> 100 µM	> 100 µM	> 100 µM	53.7 µM	43.2 µM	> 100 µM	28.2 µM	46.7 µM	> 100 µM	–	–	–	–	–	–	–	–	–
O=C(N/C(=C\c1ccc([N+](=O)[O-])cc1)c1nc2ccccc2[nH]1)c1ccccc1	–	> 100 µM	> 100 µM	> 100 µM	> 100 µM	> 100 µM	> 100 µM	> 100 µM	> 100 µM	–	–	–	–	–	–	–	–	–
CC(C)(C)c1ccc2c(c1)S(=O)(=O)Nc1ccc(Cl)cc1NS(=O)(=O)c1cc(C(C)(C)C)ccc1OCCOCCOCCO2	> 100 µM	> 100 µM	> 100 µM	> 100 µM	> 100 µM	> 100 µM	> 100 µM	> 100 µM	> 100 µM	–	–	–	–	–	–	–	–	–
O=C(CC(=O)C1CCOC1=O)C(=O)Nc1cccc(Cl)c1 (stereo not given)	> 100 µM	> 100 µM	> 100 µM	> 100 µM	> 100 µM	> 100 µM	> 100 µM	> 100 µM	> 100 µM	–	–	–	–	–	–	–	–	–
CCC(C)(O)c1cnc(CC(C)C)c(=O)n1O (stereo not given)	> 100 µM	> 100 µM	48.6 µM	> 100 µM	> 100 µM	> 100 µM	> 100 µM	> 100 µM	> 100 µM	–	–	–	–	–	–	–	–	–
Nc1ccccc1C(=O)/C=C/c1c(O)ccc2ccccc12	> 100 µM	> 100 µM	> 100 µM	> 100 µM	> 100 µM	> 100 µM	> 100 µM	> 100 µM	> 100 µM	–	–	–	–	–	–	–	–	–
CC1=NN(C(=O)CC(=O)Nc2ccccc2F)C(=O)C1N=Nc1ccccc1[N+](=O)[O-] (stereo not given)	> 100 µM	> 100 µM	> 100 µM	> 100 µM	> 100 µM	> 100 µM	> 100 µM	> 100 µM	> 100 µM	–	–	–	–	–	–	–	–	–
Cc1ccccc1C1=[N+]([O-])c2ccc(Cl)cc2C1=O	–	40.9 µM	24.3 µM	31.9 µM	32.9 µM	29.8 µM	27.1 µM	28.5 µM	19.3 µM	–	–	–	–	–	–	–	–	–
COc1cccc(/C=N/[N-]C(=O)c2ccncc2)c1[O-].COc1cccc(/C=N/[N-]C(=O)c2ccncc2)c1[O-].[O]=[U](=[O])([OH2+])[OH2+]	22.1 µM	> 100 µM	> 100 µM	> 100 µM	48.6 µM	> 90.4 µM	> 100 µM	32.5 µM	> 100 µM	3.91 µM	7.81 µM	1.44 µM	4.77 µM	4.37 µM	9.59 µM	36.3 µM	7.15 µM	5.11 µM
COc1ccc(CC2c3c(cc(OC)c(OC)c3OC)CCN2C)cc1OC (stereo not given)	> 100 µM	> 100 µM	> 100 µM	> 100 µM	> 100 µM	–	> 100 µM	> 100 µM	> 100 µM	–	–	–	–	–	–	–	–	–
O=C(Cc1nc2c3c(ccc2[nH]c1=O)C(=O)c1ccccc1C3=O)C(=O)Nc1ccccc1[N+](=O)[O-]	62.9 µM	28.6 µM	23.2 µM	–	34.4 µM	65.4 µM	43 µM	–	39.6 µM	–	–	–	–	–	–	–	–	–
Cc1cc2c(c(C(N)=O)c1C)-c1ccccc1C2=O	–	> 100 µM	> 100 µM	> 100 µM	> 100 µM	> 100 µM	> 100 µM	> 100 µM	> 100 µM	–	–	–	–	–	–	–	–	–
CC(C)=C1CCC(CN(C)C)C1=O (stereo not given)	–	20.2 µM	32.9 µM	30.8 µM	25.9 µM	> 100 µM	> 100 µM	33.6 µM	49.4 µM	–	–	–	–	–	–	–	–	–
COC(=O)/C(=N/O)C(C(=O)C=C(C)C)C(=O)C(=O)Nc1nc2ccc([N+](=O)[O-])cc2s1 (stereo not given)	97 µM	> 100 µM	72.9 µM	> 100 µM	> 100 µM	> 100 µM	> 100 µM	> 100 µM	> 100 µM	–	–	–	–	–	–	–	–	–
O=C1NCCS(=O)(=O)N[C@@H](CC2=CC=CCC2)C(=O)N2CCCC12 (stereo not given in full)	–	> 100 µM	> 100 µM	> 100 µM	> 100 µM	> 100 µM	> 100 µM	> 100 µM	> 100 µM	–	–	–	–	–	–	–	–	–
